From the SangsterLogP compilation
Each block holds one compound with its values, some of them ahead of it.

Experiments:
[1] = method code SF-HPLC, from DOI: 10.1002/ps.2780170106
[2] = method code SF-AS, from DOI: 10.1128/jb.153.1.232-240.1983, PMID: 6294048
[3] = not given; remark: listed apart in the source
[4] = not given; remark: listed apart in the source
[5] = not given; remark: listed apart in the source
[6] = not given; remark: listed apart in the source
[7] = method code SF-AS, from DOI: 10.1248/cpb.32.4084, PMID: 6099228; conditions: pH 7.4
[8] = method code SF, from DOI: 10.1023/a:1016286026462, PMID: 8570535
[9] = method code RP-HPLC, from DOI: 10.2166/wqrj.1987.010; conditions: pH 7.0
[10] = not given; remark: listed apart in the source
[11] = not given; remark: listed apart in the source
[12] = method code SF-AS, from Busch, N.; Moleyre, J.; Bondivenne, R.; Labrid, C. (1973). Study of the predictive value of the Hansch correlation equations for a series of beta-alkoxy-beta-phenylethyl pyrrolidines. Chimica …
[13] = not given; remark: listed apart in the source
[14] = method code SF-AS, from DOI: 10.1248/cpb.32.5003, PMID: 6534549
[15] = method code SF-HPLC, from DOI: 10.1023/a:1015924724973, PMID: 2762226; conditions: pH 7.4
[16] = method code SF-AS, from DOI: 10.1023/a:1016392123137, PMID: 24272811
[17] = not given; remark: listed apart in the source
[18] = method code SF-AS, from THAKUR, B.; Mehta, U.; TIPNIS, P. (1981). Ortho effect in partition coefficients of some o-benzyloxybenzamides. Indian J Pharm Sci, 43(6)224-226.
[19] = not given; remark: listed apart in the source
[20] = method code SF-HPLC, from PMID: 1515051; conditions: pH 6.0
[21] = method code SF-HPLC, from DOI: 10.1016/j.ejpb.2012.12.004, PMID: 23262162
[22] = method code SF-HPLC, from DOI: 10.1002/ps.2780280108
[23] = method code SF-HPLC, from DOI: 10.1016/j.ejpb.2006.11.002, PMID: 17182232; conditions: pH 7.4
[24] = method code SF-AS/HPLC, from Ellington, J. J. (1988). Octanol/water partition coefficients for evaluation of hazardous waste land disposal: Selected chemicals. US Environmental Protection Agency, Environmental Research …
[25] = not given; remark: listed apart in the source
[26] = method code SF-RC, from DOI: 10.1021/jm000079i, PMID: 10956218; conditions: pH 7.4
[27] = not given; remark: listed apart in the source
[28] = method code SF, from DOI: 10.1021/jm00237a002, PMID: 1133810; conditions: pH 7.2
[29] = not given; remark: listed apart in the source
[30] = method code SF, from DOI: 10.1021/jm00114a024, PMID: 1920362
[31] = not given; remark: listed apart in the source
[32] = method code SF-HPLC, from DOI: 10.1021/jm00112a026, PMID: 1875345; conditions: pH 7.4
[33] = not given; remark: listed apart in the source
[34] = method code SF-AS, from Schaper, J. (1979). Simultaneous determination of electronic and lipophilic properties of acids and bases by nonlinear regression analysis of pH-dependent partition measurements. J. Chem. Research …
[35] = not given; remark: listed apart in the source

Structure (SMILES): CN1CC(NC(=O)CSC(=O)c2ccccc2)CC2c3cccc4[nH]cc(c34)CC21 (stereo unspecified)
logP: 1.9

Structure (SMILES): Cc1nnc(SCC2=C(C(=O)O)N3C(=O)[C@@H](NC(=O)Cn4cnnn4)[C@H]3SC2)s1
logP [2]: -0.24

Structure (SMILES): Clc1cccc2c1Oc1ccccc1O2
logP [3]: 4.75

Structure (SMILES): CCOP(=O)(Sc1ccccc1)Sc1ccccc1
logP [4]: 3.68

Structure (SMILES): C=CCC(CC=C)(C(N)=O)c1ccc2c(c1)OCO2
logP [5]: 2.1

Structure (SMILES): Clc1cc2oc3cc(Cl)c(Cl)c(Cl)c3c2cc1Cl
logP [6]: 6.7

Structure (SMILES): COc1ccc(NC(=O)CN2CCCCC2)cc1
logD [7]: 2.52

Structure (SMILES): COc1ccc(C=CC(=O)OCCC(C)C)cc1
logP [8]: 4.83

Structure (SMILES): CNC(=O)Oc1cccc2c1OC(C)(C)C2
logD [9]: 1.88

Structure (SMILES): Clc1ccccc1-c1ccccc1Cl
logP [11]: 4.8

Structure (SMILES): Clc1ccc(-c2ccc(Cl)cc2Cl)cc1
logP [11]: 5.62

Structure (SMILES): Clc1cc2oc3c(Cl)c(Cl)c(Cl)cc3c2cc1Cl
logP [6]: 6.31

Structure (SMILES): S=C=Nc1ccc(-c2ccc(N=C=S)cc2)cc1
logP [17]: 5.5

Structure (SMILES): COc1ccc2nc(C3=N[C@@H](C(=O)O)CS3)sc2c1
logP [19]: 1.16

Structure (SMILES): Oc1ccc(/C=C/c2cc(O)cc(O)c2)cc1
logP [21]: 2.56

Structure (SMILES): COC(=O)c1c(C)[nH]c(-c2ccc(Cl)cn2)c1C(=O)OC
logP [22]: 2.7

Structure (SMILES): CCOC(=O)C(NC(=O)c1cccnc1)n1cc(F)c(=O)[nH]c1=O (stereo unspecified)
logD [23]: 0.21

Structure (SMILES): O=[N+]([O-])c1cc(C2CCCCC2)c(O)c([N+](=O)[O-])c1
logP [24]: 4.12

Structure (SMILES): Clc1cc(Cl)c(-c2cc(Cl)c(Cl)c(Cl)c2Cl)cc1Cl
logP [27]: 7.15

Structure (SMILES): Clc1cc2c(c(Cl)c1Cl)Oc1c(Cl)c(Cl)c(Cl)c(Cl)c1O2
logP [3]: 8.2

Structure (SMILES): Cc1c(C)c2c(c(C)c1O)CCC(C)(C(=O)O)O2 (stereo unspecified)
logP [21]: 2.61

Structure (SMILES): Clc1ccc(-c2ccc(Cl)c(Cl)c2)cc1Cl
logP [29]: 6.04

Structure (SMILES): CNCCN(C)S(=O)(=O)c1ccc(CONC(N)=O)c([N+](=O)[O-])c1
logP [30]: 0.45

Structure (SMILES): COC(=O)C(NC(=O)c1cccnc1)n1cc(F)c(=O)[nH]c1=O (stereo unspecified)
logD [23]: -0.12

Structure (SMILES): CC(C)OP(=O)(OC(C)C)SCc1ccccc1
logP [4]: 3.43

Structure (SMILES): O=C(CN1CCCCC1)Nc1ccc(Cl)c(Cl)c1
logD [7]: 3.65

Structure (SMILES): COC(=O)c1c(C)[nH]c(-c2cccc(Cl)n2)c1C(=O)OC
logP [22]: 2.65

Structure (SMILES): COC(=O)[C@H]1CSC(c2nc3ccc(O)cc3s2)=N1
logP [19]: 2.23

Structure (SMILES): Oc1cc(Cl)ccc1Oc1ccc(Cl)cc1Cl
logP [8]: 4.53

Structure (SMILES): Cc1ccc(Cl)c(NS(=O)(=O)c2nc(C)n(-c3ncccn3)n2)c1Cl
logP [25]: 3

Structure (SMILES): C/C=C(/C)C(=O)O[C@H]1CCN2CC=C(COC(=O)[C@@](O)([C@H](C)OC)C(C)(C)O)[C@H]12
logP [24]: 1.28

Structure (SMILES): OC(CN1C2C3CCC(C3)C21)Cn1ccnc1 (stereo unspecified)
logD [32]: 1.6

Structure (SMILES): Cc1ccc2ccc3ccc(C)nc3c2n1
logP [16]: 2.46

Structure (SMILES): CS(=O)(=O)c1ccc([C@@H](O)[C@@H](CO)NC(=O)C(Cl)Cl)cc1
logP [33]: 0.15

Structure (SMILES): Cc1ccc(NS(=O)(=O)c2ccc(N)cc2)cc1
logP [34]: 2.11

Structure (SMILES): c1ccc2c(c1)ccc1ccccc12
logP [27]: 4.69

Structure (SMILES): c1ccc2c(c1)ccc1cc3ccc4ccccc4c3nc12
logP [35]: 6.42

Structure (SMILES): CCOC(=O)C1CCC2C(C1)N2CC(O)Cn1ccnc1 (stereo unspecified)
logD [32]: 1.13

Structure (SMILES): Nc1ccc(S(=O)(=O)Nc2ccc(S(N)(=O)=O)cc2)cc1
logP [13]: 0.35

Structure (SMILES): c1ccc2c(c1)Cc1ccccc1-2
logP [35]: 4.2

Structure (SMILES): Brc1cc(Br)cc(-c2cc(Br)cc(Br)c2)c1
logP [29]: 7.41

Structure (SMILES): CN(C)c1ccc(NS(=O)(=O)c2ccc(N)cc2)cc1
logP [34]: 1.57

The remaining lines, values ahead:

logD ([1]; pH 2.0): 3
Structure (SMILES): O=C(O)CCOc1cccc2ccccc12

logP [10]: 4.5
Structure (SMILES): c1ccc2[nH]c(SCCC3CCCCC3)nc2c1

logP [12]: 1.88
Structure (SMILES): COC(CN1CCCC1)c1ccccc1 (stereo unspecified)

logP [13]: 1.55
Structure (SMILES): Nc1ccc(S(=O)(=O)Nc2ccccc2)cc1

logP [14]: 2.4
Structure (SMILES): O=C(Cc1ccccc1)Nc1ccccc1O

logD [15]: 1.19
Structure (SMILES): CCCCOC(=O)[C@@H](N)Cc1ccc(O)c(O)c1

logD ([1]; pH 6.4): 2.8
Structure (SMILES): N#CCCOc1cccc2ccccc12

logD ([16]; pH 6.0): 3.04
Structure (SMILES): Cc1ccc2c(N)nc(-c3ccccn3)cc2c1

logP: 2.66
Structure (SMILES): CCN(CC)CCSCc1ccccc1

logP [18]: 1.73
Structure (SMILES): NC(=O)c1ccccc1OCc1ccc([N+](=O)[O-])cc1

logP [12]: 1.38
Structure (SMILES): OC(CN1CCCC1)c1ccccc1 (stereo unspecified)

logD [20]: 3.46
Structure (SMILES): CC(C)COC(=O)n1c(-c2cscn2)nc2ccccc21

logD ([2]; pH 3.0): 1.68
Structure (SMILES): CC(=O)OCC1=C(C(=O)O)N2C(=O)C(NC(=O)Cc3cc4ccccc4s3)C2SC1 (stereo unspecified)

logP [14]: 2.62
Structure (SMILES): O=C(Cc1ccccc1)Nc1ccccc1F

logP [10]: 4.16
Structure (SMILES): c1ccc(Cc2nc3ccccc3[nH]2)cc1

logP [25]: 4.2
Structure (SMILES): CCCc1nc(S(=O)(=O)Nc2c(F)cccc2F)nn1-c1ccccc1

logD [26]: 2.83
Structure (SMILES): COc1ccc(Sc2ccccc2N(C)C)c(N)c1

logD [28]: 0.53
Structure (SMILES): CCOc1cnc(NS(=O)(=O)c2ccccc2)nc1

logP [5]: 1.59
Structure (SMILES): CCC(CC)(C(N)=O)c1ccc2c(c1)OCO2

logP [30]: 1.42
Structure (SMILES): CN(C)CCN(C)S(=O)(=O)c1ccc(C(C)(C)[N+](=O)[O-])c([N+](=O)[O-])c1

logD [9]: 6.69
Structure (SMILES): Cc1cc(Cl)ccc1OCC(=O)OCCCCCC(C)C

logD [15]: -0.46
Structure (SMILES): N[C@@H](Cc1ccc(O)c(O)c1)C(=O)OCCCCO

logP [31]: 2.79
Structure (SMILES): CC(C)(C)NC(=O)[C@@H]1CN(Cc2cccnc2)CCN1C[C@@H](O)C[C@@H](Cc1ccccc1)C(=O)N[C@H]1c2ccccc2C[C@H]1O

logD [20]: 2.51
Structure (SMILES): CCOC(=O)n1c(-c2cscn2)nc2ccccc21

logD [28]: 0.88
Structure (SMILES): CCc1cnc(NS(=O)(=O)c2ccccc2)nc1

logP [31]: 1.9
Structure (SMILES): CN1C(C(=O)Nc2ccccn2)=C(O)c2sccc2S1(=O)=O

logP [18]: 1.86
Structure (SMILES): Cc1ccc(COc2ccccc2C(N)=O)cc1

logP [33]: 4.75
Structure (SMILES): Clc1ccccc1C(c1ccccc1)(c1ccccc1)n1ccnc1

logP [17]: 4.42
Structure (SMILES): S=C=NCc1ccc2ccccc2c1
